Assay results as given in PubChem BioAssay (NCI).
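The compound was tested at five concentrations on cells cultured in 96-well plates, with a 48-hour exposure period. TGI: concentration producing complete growth inhibition.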

Columns and labels:
Assay in all cases: NCI-60 cell line screen, 48 h
TK-10 renal = test system: TK-10 renal
HCC-2998 colon = test system: HCC-2998 colon
HOP-92 NSCLC = test system: HOP-92 NSCLC
DU-145 prostate = test system: DU-145 prostate
MCF7 breast = test system: MCF7 breast
UO-31 renal = test system: UO-31 renal
SK-MEL-2 melanoma = test system: SK-MEL-2 melanoma
K-562 leukemia = test system: K-562 leukemia
UACC-62 melanoma = test system: UACC-62 melanoma
NCI-H460 lung = test system: NCI-H460 lung
MDA-MB-435 = test system: MDA-MB-435
A498 renal = test system: A498 renal
M14 melanoma = test system: M14 melanoma
OVCAR-5 ovarian = test system: OVCAR-5 ovarian
SF-295 CNS = test system: SF-295 CNS
A549 NSCLC = test system: A549 NSCLC
IGROV1 ovarian = test system: IGROV1 ovarian

Row | SMILES | TGI (TK-10 renal) | TGI (HCC-2998 colon) | TGI (HOP-92 NSCLC) | TGI (DU-145 prostate) | TGI (MCF7 breast) | TGI (UO-31 renal) | TGI (SK-MEL-2 melanoma) | TGI (K-562 leukemia) | TGI (UACC-62 melanoma) | TGI (NCI-H460 lung) | TGI (MDA-MB-435) | TGI (A498 renal) | TGI (M14 melanoma) | TGI (OVCAR-5 ovarian) | TGI (SF-295 CNS) | TGI (A549 NSCLC) | TGI (IGROV1 ovarian)
1 | CSc1ccccc1NC1=NCCO1 | > 100 µM | > 100 µM | > 100 µM | > 100 µM | > 100 µM | > 100 µM | > 100 µM | > 100 µM | > 100 µM | > 100 µM | > 100 µM | > 100 µM | > 100 µM | > 100 µM | > 100 µM | > 100 µM | > 100 µM
2 | C[Si](C)(C)CCOCN(C(=O)C1=CCC2(CC1)OCCO2)c1ccccc1I | 63.5 µM | 50.5 µM | 22.1 µM | > 100 µM | 34.4 µM | 38.9 µM | 32.6 µM | > 100 µM | 41.3 µM | 61.3 µM | 33.8 µM | 27.3 µM | 39.5 µM | 41.9 µM | 32 µM | 88.2 µM | 42.9 µM
3 | C#CCC(O)c1ccc(OC)c(OCc2ccccc2)c1 (configuration not stated) | > 100 µM | > 100 µM | > 100 µM | > 100 µM | > 100 µM | > 100 µM | > 100 µM | > 100 µM | > 100 µM | > 100 µM | > 100 µM | > 100 µM | > 100 µM | > 100 µM | > 100 µM | > 100 µM | > 100 µM
4 | O=[N+]([O-])c1ccccc1S(=O)(=O)c1cccc2c1NCCC2 | > 100 µM | > 100 µM | > 100 µM | > 100 µM | > 100 µM | > 100 µM | > 100 µM | > 100 µM | > 100 µM | > 100 µM | > 100 µM | > 100 µM | > 100 µM | > 100 µM | > 100 µM | > 100 µM | > 100 µM
5 | COc1ccc(/C=N/NS(=O)(=O)c2ccc(/C=C3\NC(=O)NC3=O)cc2)cc1 | > 100 µM | > 100 µM | > 100 µM | > 100 µM | > 100 µM | > 100 µM | > 100 µM | > 100 µM | > 100 µM | > 100 µM | > 100 µM | > 100 µM | > 100 µM | > 100 µM | > 100 µM | > 100 µM | > 100 µM
6 | O=C(N[C@H](CO)[C@H](O)c1ccc([N+](=O)[O-])cc1)C(Cl)Cl | > 100 µM | > 100 µM | > 100 µM | > 100 µM | > 100 µM | > 100 µM | > 100 µM | > 100 µM | > 100 µM | > 100 µM | > 100 µM | > 100 µM | > 100 µM | > 100 µM | > 100 µM | > 100 µM | > 100 µM
